# Experimental data reported in US20120237524A1, “MET INHIBITORS FOR ENHANCING RADIOTHERAPY EFFICACY” (priority 2011, published 2012).
# What was measured:
# [1] = molecular target: T1, ATM kinase (Homo sapiens, UniProt Q13315); test: ATM kinase inhibition in irradiated cells, western blot time course; format: cell-based; settings: MDA-MB-435S or MDA-MB-231, 10 μM, time course after irradiation
# T1 construct: endogenous in cells; host or cells: MDA-MB-435S, MDA-MB-231 (ATCC)
# Method: Met protein expression, Chk2 phosphorylation (p-Chk2) and p65/RelA nuclear translocation in MDA-MB-435S treated with the ATM kinase inhibitor CGK733, and extracted at the indicated time-points after irradiation. ctrl, non-irradiated cells at time zero.
# Cell lines (A549, MDA-MB-231, LoVo, MDAMB-4355, U-87MG, U-251, PC3, SF295, DLD1, SK-N-SH) were from ATCC. For ATM kinase inhibition, cells were pre-treated for 4 h before irradiation and then kept in the presence of CGK733 (10 μM in DMSO). siRNAs targeting RELA (ON-TARGET plus SMART pool L-003533-00 Human RELA, NM 021975, Dharmacon, 100 nM), or control siRNAs (ON-TARGET plus SMART pool, siCONTROL Non Targeting siRNA, Dharmacon) were transiently transfected.
# Protein expression was investigated in irradiated confluent, serum-starved cells. For fractionation in cytoplasmic and nuclear portions, cells were washed and incubated on ice for 10 min in “buffer A” (10 mM HEPES pH 7.9, 10 mM KCl, 0.1 mM EDTA, 0.5% NP-40, 1 mM dithiothreitol, 1 mM phenylmethylsulfonyl fluoride and a cocktail of protease inhibitors). Supernatants, containing the cytoplasmic extracts, were separated by centrifugation. Pellets were resuspended in “buffer B” (20 mM HEPES pH 7.9, 400 mM KCl, 1 mM EDTA, 1 mM dithiothreitol, 10% glycerol, 1 mM phenylmethylsulfonyl fluoride and a cocktail of protease inhibitors) and incubated at 4° C. for 1 h with vigorous mixing. The resulting nuclear lysates were clarified by high-speed centrifugation. Equal amount of proteins were resolved by SDS-PAGE and analysed by western blot with the following primary antibodies: mouse anti-human Met (DL21 disclosed in Prat et al., Int. J. Cancer 49, 323-328 (1991)), mouse anti-p65/RelA and mouse anti-HIF-1α (BD Biosciences), rabbit anti-phospho-Ser276 and rabbit anticaspase-3 (Cell Signaling), rabbit anti-phospho-Chk2 (T68, R&D Systems). Goat anti-actin (C-11; Santa Cruz Biotechnology) and mouse anti-lamin B (Calbiochem) were used for control of equal cytoplasmic or nuclear protein loading, respectively. […] Densitometric analysis was performed with Quantity One 1-D (Bio-Rad Laboratories). […]
# [2] = tested on: MDA-MB-4355 spheroids; test: Branching morphogenesis assay; format: cell-based, human; settings: HGF 5 nM alone (suboptimal concentration), non-irradiated MDA-MB-4355
# Method: a, Basement membrane invasion by irradiated MDA-MB-231 or U-251 (10 Gy; ctrl, control). Micrographs of transwell filters (10×). b, Aberrant Met-induced branching morphogenesis in irradiated MDA-MB-4355 (10 Gy; ctrl, control), cultured with or without (−) the indicated HGF concentrations. Scale bar: 100 μm.
# MDA-MB-4355 spheroids were preformed by single-cell resuspension in 240 mg/ml methylcellulose (Sigma) and culture in nonadherent 96-well plates (Greiner) for 24 h. Spheroids were transferred into a matrix containing 1.3 mg/ml type I collagen from rat tail (BD Biosciences), 10% FBS, and 240 mg/ml methylcellulose. After 24 h, cells were irradiated and/or cultured in the presence of HGF for 7 days. HGF was obtained as a baculovirus recombinant protein in SF9 cells. The conditioned medium from uninfected cells was used as negative control. Images are representative of results obtained in three independent experiments.
# [3] = molecular target: T2, Met (Homo sapiens, UniProt P08581); test: Met phosphorylation (immunoprecipitation, anti-phospho-Tyr western blot) in MDA-MB-231; format: cell-based; settings: MDA-MB-231, HGF 50 ng/ml (non-saturating)
# T2 construct: Met phosphorylation in MDA-MB-231 treated with HGF (50 nM) and/or IR (10 Gy); endogenous in cells; host or cells: MDA-MB-231 (ATCC)
# [4] = tested on: U-251; test: Cell viability assay with DN30 Fab, with irradiation (10 Gy); format: cell-based, human
# Method: Viability of U-251 irradiated with 10 Gy and/or cultured in the presence of the Fab fragment of the DN30 anti-Met antibody, for 48 h (vehicle: non-irradiated cells). Columns: mean of triplicate analyses of three independent experiments±s.e.m. […] Columns: percentage of cells generating clones (mean of triplicate analyses of two independent experiments±s.e.m., * p<0.05, n=6, paired t-test).
# 10^3 cells were seeded in 96-well plates and grown for 24 h. Culture medium was replaced with medium containing 1% FBS and DN30 Fab (28 μg/ml) or the vehicle alone (PBS). After 24 h, cells were irradiated (10 Gy). Cell viability was assessed as above.
# T1 sequence (Q13315 whole entry): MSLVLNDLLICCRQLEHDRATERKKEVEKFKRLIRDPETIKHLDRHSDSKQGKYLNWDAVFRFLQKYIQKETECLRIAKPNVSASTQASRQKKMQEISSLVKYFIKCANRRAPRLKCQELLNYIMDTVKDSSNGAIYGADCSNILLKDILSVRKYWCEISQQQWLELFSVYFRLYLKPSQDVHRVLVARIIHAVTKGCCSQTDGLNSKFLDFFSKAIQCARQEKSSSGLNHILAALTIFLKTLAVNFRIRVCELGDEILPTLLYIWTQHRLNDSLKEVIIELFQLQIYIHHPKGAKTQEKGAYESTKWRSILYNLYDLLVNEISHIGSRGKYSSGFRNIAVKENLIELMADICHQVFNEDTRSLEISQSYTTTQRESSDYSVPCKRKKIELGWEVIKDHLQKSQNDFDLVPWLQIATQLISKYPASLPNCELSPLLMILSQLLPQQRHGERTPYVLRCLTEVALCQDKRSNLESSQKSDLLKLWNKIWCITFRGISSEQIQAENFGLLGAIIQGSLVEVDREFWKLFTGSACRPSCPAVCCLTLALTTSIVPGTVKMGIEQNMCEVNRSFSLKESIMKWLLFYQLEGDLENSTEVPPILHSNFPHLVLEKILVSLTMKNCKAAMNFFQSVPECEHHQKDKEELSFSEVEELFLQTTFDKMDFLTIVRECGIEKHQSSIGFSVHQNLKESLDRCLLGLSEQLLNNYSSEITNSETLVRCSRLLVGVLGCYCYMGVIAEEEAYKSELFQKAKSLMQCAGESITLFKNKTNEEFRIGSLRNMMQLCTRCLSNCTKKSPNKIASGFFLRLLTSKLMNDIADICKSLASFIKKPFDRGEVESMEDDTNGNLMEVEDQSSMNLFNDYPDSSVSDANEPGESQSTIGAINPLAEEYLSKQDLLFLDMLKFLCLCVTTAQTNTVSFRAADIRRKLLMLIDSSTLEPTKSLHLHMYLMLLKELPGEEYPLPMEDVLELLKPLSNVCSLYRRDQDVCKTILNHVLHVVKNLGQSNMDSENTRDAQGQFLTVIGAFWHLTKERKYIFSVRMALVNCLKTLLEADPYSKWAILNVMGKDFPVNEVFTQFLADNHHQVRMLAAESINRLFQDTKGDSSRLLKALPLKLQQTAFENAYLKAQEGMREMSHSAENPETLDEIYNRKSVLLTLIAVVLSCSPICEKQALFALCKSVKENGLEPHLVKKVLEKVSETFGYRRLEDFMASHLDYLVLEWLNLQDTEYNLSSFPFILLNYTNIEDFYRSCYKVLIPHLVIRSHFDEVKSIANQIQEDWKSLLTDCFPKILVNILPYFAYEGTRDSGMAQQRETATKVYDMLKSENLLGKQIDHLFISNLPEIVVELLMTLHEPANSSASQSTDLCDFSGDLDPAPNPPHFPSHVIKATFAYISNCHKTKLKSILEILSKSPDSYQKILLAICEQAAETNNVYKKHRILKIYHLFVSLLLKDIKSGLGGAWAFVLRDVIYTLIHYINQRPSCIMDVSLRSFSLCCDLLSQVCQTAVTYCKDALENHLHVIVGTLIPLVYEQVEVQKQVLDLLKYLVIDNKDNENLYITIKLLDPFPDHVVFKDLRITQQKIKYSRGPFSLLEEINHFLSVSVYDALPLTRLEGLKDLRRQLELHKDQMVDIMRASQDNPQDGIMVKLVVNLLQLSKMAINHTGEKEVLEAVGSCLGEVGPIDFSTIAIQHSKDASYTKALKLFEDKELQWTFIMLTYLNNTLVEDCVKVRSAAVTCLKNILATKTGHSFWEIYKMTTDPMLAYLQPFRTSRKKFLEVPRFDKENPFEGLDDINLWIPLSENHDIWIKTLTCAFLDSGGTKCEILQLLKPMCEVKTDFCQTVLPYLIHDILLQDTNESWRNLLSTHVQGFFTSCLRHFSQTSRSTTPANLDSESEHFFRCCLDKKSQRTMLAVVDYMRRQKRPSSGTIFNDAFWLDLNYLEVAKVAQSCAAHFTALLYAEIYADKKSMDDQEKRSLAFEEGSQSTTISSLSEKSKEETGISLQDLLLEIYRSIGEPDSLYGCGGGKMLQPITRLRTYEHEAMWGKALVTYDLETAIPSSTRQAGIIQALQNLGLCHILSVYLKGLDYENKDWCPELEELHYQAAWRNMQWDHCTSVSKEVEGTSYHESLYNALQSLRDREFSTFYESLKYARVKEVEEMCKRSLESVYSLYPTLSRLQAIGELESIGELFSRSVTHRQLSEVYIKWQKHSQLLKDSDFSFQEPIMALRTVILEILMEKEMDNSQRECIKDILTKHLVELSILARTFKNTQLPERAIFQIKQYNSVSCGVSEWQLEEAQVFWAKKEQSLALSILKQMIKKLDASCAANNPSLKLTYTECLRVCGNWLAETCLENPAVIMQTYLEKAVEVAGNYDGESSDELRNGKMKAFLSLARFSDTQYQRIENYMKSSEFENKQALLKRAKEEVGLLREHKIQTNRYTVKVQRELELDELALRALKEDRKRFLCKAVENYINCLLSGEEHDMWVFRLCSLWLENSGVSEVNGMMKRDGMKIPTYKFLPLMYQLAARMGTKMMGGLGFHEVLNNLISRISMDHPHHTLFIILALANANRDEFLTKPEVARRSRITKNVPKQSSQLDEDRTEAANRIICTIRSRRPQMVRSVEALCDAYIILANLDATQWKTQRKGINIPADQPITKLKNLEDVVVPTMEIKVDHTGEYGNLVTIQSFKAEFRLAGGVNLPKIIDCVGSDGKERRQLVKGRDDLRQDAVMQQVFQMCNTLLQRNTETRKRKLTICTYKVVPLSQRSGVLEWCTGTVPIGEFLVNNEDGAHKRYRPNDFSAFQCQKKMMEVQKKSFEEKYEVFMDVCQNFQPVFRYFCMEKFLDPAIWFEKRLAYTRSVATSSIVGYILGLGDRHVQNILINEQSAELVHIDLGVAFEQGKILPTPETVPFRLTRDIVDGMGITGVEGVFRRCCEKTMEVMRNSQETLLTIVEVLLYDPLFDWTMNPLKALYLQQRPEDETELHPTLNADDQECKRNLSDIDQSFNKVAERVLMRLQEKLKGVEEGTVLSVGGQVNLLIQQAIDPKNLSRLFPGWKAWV
# T2 sequence (P08581 25-1390): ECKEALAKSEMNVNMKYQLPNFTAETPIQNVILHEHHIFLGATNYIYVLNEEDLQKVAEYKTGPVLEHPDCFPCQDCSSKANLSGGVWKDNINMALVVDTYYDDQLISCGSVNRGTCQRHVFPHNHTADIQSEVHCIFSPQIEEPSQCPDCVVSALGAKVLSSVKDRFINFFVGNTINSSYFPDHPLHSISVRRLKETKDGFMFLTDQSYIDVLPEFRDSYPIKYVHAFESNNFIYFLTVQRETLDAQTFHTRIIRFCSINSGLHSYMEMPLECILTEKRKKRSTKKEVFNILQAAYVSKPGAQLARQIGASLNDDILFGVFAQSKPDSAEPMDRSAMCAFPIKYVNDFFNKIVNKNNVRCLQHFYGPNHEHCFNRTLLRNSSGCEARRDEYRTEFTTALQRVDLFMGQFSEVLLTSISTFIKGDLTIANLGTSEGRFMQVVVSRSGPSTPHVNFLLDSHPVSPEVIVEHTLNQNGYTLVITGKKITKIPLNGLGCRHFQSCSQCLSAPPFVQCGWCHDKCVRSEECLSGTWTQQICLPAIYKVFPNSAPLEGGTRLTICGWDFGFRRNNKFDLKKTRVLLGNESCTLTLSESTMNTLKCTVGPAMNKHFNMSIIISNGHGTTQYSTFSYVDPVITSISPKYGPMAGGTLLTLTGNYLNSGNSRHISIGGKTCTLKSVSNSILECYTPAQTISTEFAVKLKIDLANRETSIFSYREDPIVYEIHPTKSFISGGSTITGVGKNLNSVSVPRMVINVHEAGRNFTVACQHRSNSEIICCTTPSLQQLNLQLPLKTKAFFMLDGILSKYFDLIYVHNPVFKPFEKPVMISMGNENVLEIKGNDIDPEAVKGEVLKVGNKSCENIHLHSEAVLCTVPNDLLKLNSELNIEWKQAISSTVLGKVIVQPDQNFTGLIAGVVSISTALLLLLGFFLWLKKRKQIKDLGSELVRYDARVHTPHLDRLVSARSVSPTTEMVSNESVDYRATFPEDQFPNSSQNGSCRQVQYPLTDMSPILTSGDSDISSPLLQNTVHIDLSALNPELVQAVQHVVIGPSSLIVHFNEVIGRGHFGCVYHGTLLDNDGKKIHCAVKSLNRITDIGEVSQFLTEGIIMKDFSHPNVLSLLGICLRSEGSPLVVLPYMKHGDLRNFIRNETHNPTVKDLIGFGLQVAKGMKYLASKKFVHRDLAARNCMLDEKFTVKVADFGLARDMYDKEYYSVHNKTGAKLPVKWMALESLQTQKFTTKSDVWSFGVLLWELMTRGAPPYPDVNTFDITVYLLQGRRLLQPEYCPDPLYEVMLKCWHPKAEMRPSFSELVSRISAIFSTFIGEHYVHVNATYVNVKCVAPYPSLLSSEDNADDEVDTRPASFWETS
molecule,measurement,setting,value
O=C(NC(NC(=S)Nc1ccc(F)c([N+](=O)[O-])c1)C(Cl)(Cl)Cl)C(c1ccccc1)c1ccccc1 (stereo not shown) [CGK733],IR-induced Met protein overexpression,[1],prevented
same,IR-induced p65/RelA nuclear translocation,[1],prevented
same,IR-induced phosphorylation of the specific ATM substrate Chk2,[1],prevented
"HGF: Hepatocyte Growth Factor, Met ligand, obtained as a baculovirus recombinant protein in SF9 cells",induction of branching morphogenesis,[2],incapable of inducing branching morphogenesis
same,time to peak of Met phosphorylation,[3],30 min
Fab fragment of the DN30 anti-Met antibody: Fab fragment obtained through DN30 papain digestion and affinity purification; induces MET down-regulation (antibody) heavy: QVQLQQPGTELVKPGASVKLSCKASGYTFTSYWIHWVKQRPGQGLEWIGEINPSSGRTNYNEKFKNKVTVTVDKSSTTAYMQLSNLTSEDSAVYYCASRGYWGQGTTLTVSSAKTTAPSVYPLAPVCGNTTGSSVTLGCLVKGYFPEPVTLTWNSGSLSSGVHTFPAVLQSDLYTLSSSVTVTSSTWPSQSITCNVAHPASSTKVDKKIEPRGPTIKPCPPCKCPAPNLLGGPSVFIFPPKIKDVLMISLSPIVTCVVVDVSEDDPDVQISWFVNNVEVHTAQTQTHREDYNSTLRVVSALPIQHQDWMSGKEFKCKVNNKDLPAPIERTISKPKGSVRAPQVYVLPPPEEEMTKKQVTLTCMVTDFMPEDIYVEWTNNGKTELNYKNTEPVLDSDGSYFMYSKLRVEKKNWVERNSYSCSVVHEGLHNHHTTKSFSRTPGK light: DIVLTQSPASLAVSLGQRATISCKASQSVDYDGGSYMSWFQQRPGQPPKLLISAASNLESGIPARFSGSGSGTDFTLNIHPVEEEDVATYYCQQSYEDPLTFGAGTKLELKRADAAPTVSIFPPSSEQLTSGGASVVCFLNNFYPKDINVKWKIDGSERQNGVLNSWTDQDSKDSTYSMSSTLTLTKDEYERHNSYTCEATHKTSTSPIVKSFNRNEC,Viability of U-251 (combination vs single treatments),"[4]; U-251 irradiated with 10 Gy and cultured with DN30 Fab for 48 h, p<0.05, n=9",viability significantly reduced with respect to either Fab-DN30 or 10 Gy alone
same,cell viability decrease,"[4]; irradiated cells kept in the presence of DN30 Fab (28 μg/ml), 10 Gy",up to 75%
